Assay results: patent publication US10537607B2, “Treatment of autoimmune and/or inflammatory disease using novel caveolin modulators” (E&B TECHNOLOGIES LLC, priority 2013, dated 2020)
“Also recorded” adds a separate entry of the source.

Key:
[1] = test system: VEGF-induced NO release (eNOS activity) in BAEC; experiment: VEGF-induced NO release in cultured BAEC; type: cell-based, bovine; settings: for effect on VEGF-induced NO release (in words) / inhibition of VEGF-induced NO release: 6 h pretreatment; for effect on basal (unstimulated) NO release: six-hour pretreatment, NO-specific chemiluminescence
Experimental: VEGF-induced NO release experiments were performed as previously described.
[…] Media was removed and fresh serum-free DMEM was added, with or without VEGF (10^−9 M) for 30 minutes. Media was collected, cells were trypsinized and counted, and nitrites levels in the supernatant were determined by using a Sievers NO chemiluminescence analyzer.

[2] = test system: mustard oil-induced vascular permeability; type: in vivo, mouse; settings: mice, one-hour pretreatment, AP-Cav 1 mg/kg or same molar dose, vs carrier peptide alone, 30 min
Experimental: Plasma leakage in mouse skin was studied using the Miles assay as previously described. Briefly, male Swiss mice (30-35 g) were anesthetized and injected with Evans blue (30 mg/kg in PBS; Sigma). […] (5% in mineral oil), an analog of mustard oil (Pierce, Rockford, Ill.) was applied on the right ear with a cotton tip. The left ear was used as a control and was treated with mineral oil alone. After 30 minutes, the anesthetized animals were sacrificed, perfused, ears were removed, dried and weighed. Evans blue was extracted from the ears with formamide and quantified spectrophotometrically at 595 nm.

[3] = test system: dextran sulfate sodium colitis; experiment: Dextran sulfate sodium model of inflammatory bowel disease; type: in vivo, mouse; settings: C57B1/6 mice, DSS 2% in drinking water, 2.5 mg/kg i.p. daily from day 1
Experimental: C57B1/6 mice are fed dextran sulfate sodium 2% in the drinking water for 9 days. Body weights are measured daily. At the end of 9 days, mice are sacrificed and the first distal centimeter of the colon subject to histopathological analysis. Sections are scored according to the scoring system described in Jirkof et al., Burrowing is a sensitive behavioral assay for monitoring general wellbeing during dextran sulfate sodium colitis in laboratory mice. Laboratory animals. 2013, 47(4):274-83. doi: 10.1177/0023677213493409. PubMed PMID:23828853.

multiple sclerosis = experiment: Treatment of patients diagnosed with multiple sclerosis; type: in vivo, human; settings: 80 mg per day by subcutaneous injection
Experimental: Patients diagnosed with MS, including relapsing remitting and primary progressive types, are treated with Endo-5 CavAB (SEQ ID NO.1/SEQ ID NO. 6) (or other caveolin analog) at 80 mg per day by subcutaneous injection. […] The changes in the patient receiving the treatment are measured using the Multiple Sclerosis Functional Composite. See, e.g., the website of the National MS Society: Clinical Study Measures.

HUVEC = experiment: CPP imaging of live HUVEC (pulse/chase epifluorescence microscopy); type: cell-based, human; settings: for intracellular staining after pulse: carboxyfluorescein-Endo5 and rhodamine-AP, 10^−6M, 1 h at 37° C.; for intracellular staining after chase: two-hour chase in absence of CPP
Experimental: Freshly isolated HUVEC were grown in M199 media supplemented with glutamine, 10% FBS and endothelial cell growth supplement on Petri dishes with glass bottom. Since CPPs bind non-specifically to glass, the background fluorescence was reduced by pretreating glass-bottom Petri dishes with a blocking solution containing unlabelled AP and Endo5 for 30 minutes (5×10^−5 M) in colorless M199 media with 1% FBS.
After cell seeding, media was removed and carboxyfluorescin-labeled Endo5 and Rhodamine-labeled AP were added to cells (10^−5M) and cells were incubated at 37° C. and 5% CO2 for 1 hour (pulse). Media was removed, cells were rinsed once with warm culture media and peptide uptake was rapidly visualized on a Zess Axiovert inverted fluorescence microscope by performing a Z-stack of captured images followed by volume deconvolution (Openlab software). The new media was left on cells for an additional 2 hours (total 3 hours) to chase CPP localization, and cells were visualized again (chase).
In the present study, epifluorescence microscopy experiments were performed in live HUVEC to compare the uptake mechanism of Endo5 to AP. After blocking glass bottom Petri dishes with unlabeled AP and Endo5 to minimize non-specific binding of labeled peptides, freshly isolated HUVEC were grown to 50% confluent and labeled with a “pulse” of carboxyfluorescein-Endo5 and rhodamine-AP (10^−6M) for 1 h, rinsed, followed by a two-hour “chase” for a total of 3 hours.

BAEC = experiment: Quantification of internalization of fluorophore-labelled peptides; type: cell-based, bovine; settings: cultured endothelial cells
Experimental: Cultured BAEC were grown in 6-well plates until confluence was reached. Cells were washed and incubated in 1 mL of DMEM containing labeled peptides (10^−6 M) for 1, 2, 4 or 6 hours at 37° C., washed three times with cold PBS containing 0.1 M glycine (pH 4) to remove non-specific surface staining.
After complete media removal, cells were trypsinized, centrifuged and proteins were extracted by adding 150 μL of SDS-based or Triton X-100 lysis buffer. Membranes were removed by centrifugation, and internalized peptides were quantified by using a fluorescence plate reader (Perseptive Biosystems).
Cells incubated with peptides for 5 minutes and washed as described were used as basal surface staining. Linearity of both fluorophores used was determined by performing a concentration-fluorescence curve using lysis solution. Experiments with each fluorophore were performed individually to prevent cross-interference.

traumatic brain injury = experiment: Traumatic brain injury, controlled cortical impact model; type: in vivo, rat; settings: rats
Source text: Sprague Dawley rats (10 week old) are anesthetized using 1-2% isoflurane and fixed in a stereotactic frame. The skull is surgically exposed and a craniectomy 2.5 mm in radius is made centered on coordinates −0.2 mm anterior and +0.2 mm lateral to midlineat the fronto-parietal cortex. A controlled cortical impactor (Pittsburgh Precision Instruments, Inc., Pittsburgh, Pa.) is used to deliver an impact using a velocity of 6.0 m/s and depth of 1.0 mm below the dura mater and duration of impact of 150 ms. The impactor is angled to impact the skull perpendicular to the brain at the point of impact. Animals are maintained at normal body temperature throughout the procedure. Following the impact, the incision is sutured and the animals are allowed to recover.
Neurological deficits are scored using the system of Clark assessed 24 and 48 hours post injury. See, Clark W et al., Citicoline treatment for experimental intracerebral hemorrhage in mice. Stroke; a journal of cerebral circulation. 1998; 29(10):2136-40. PubMed PMID: 9756595.
At 48 hours post TBI, rats are sacrificed and the brains sectioned and tissue processed for immunohistochemistry. […] See, Glushakov et al., Prostaglandin F2alpha FP receptor antagonist improves outcomes after experimental traumatic brain injury, Journal of neuroinflammation. 2013; 10(1):132. doi: 10.1186/1742-2094-10-132. PubMed PMID:24172576.

[4] = test system: experimental autoimmune encephalitis; settings: experimental model of autoimmune encephalitis; cited from earlier work
[5] = BAEC, peptide 10^−5 M, VEGF 10^−9 M 30 min

## Endo5 (RRPPR) with cargo DGIWKASFTTFTVTKYWFYR, caveolin-1 amino acids 82-101, fused to its C-terminus (RRPPRDGIWKASFTTFTVTKYWFYR; listed as Homo sapiens) [Endo5-Cav]
[1]; BAEC, 10^−5 M, 4 hours pretreatment
  eNOS inhibition (VEGF-induced NO release), in words: complete eNOS inhibition
[1]; BAEC, Endo5-Cav 10^−5 M 6 h, AP 5×10^−5 M pretreatment
  inhibition of VEGF-induced NO release after pretreatment with AP: 30%
[1]; BAEC, Endo5-Cav 10^−5 M 6 h, Endo5 5×10^−5 M pretreatment
  inhibition of VEGF-induced NO release after pretreatment with Endo5: 13%
[1]; BAEC, construct 10^−5 M 6 h, AP or Endo5 5×10^−5 M
  fate of the inhibition of VEGF-induced NO release after pretreatment with either AP or Endo5: partially prevented
[1]; [5]
  effect on VEGF-induced NO release (in words): completely impaired; also recorded: near-maximum effect; also recorded: completely blocked
  inhibition of VEGF-induced NO release: 91%
[1]; BAEC, 10^−5 M
  effect on basal (unstimulated) NO release: no significant effect
[1]; inferred from 2 h Endo5-Cav vs 6 h AP-Cav pretreatment, 10^−5 M
  rate of uptake relative to AP-Cav: approximately three times
[2]
  inhibition of mustard oil-induced vascular leakage: 58%

## Endo5-CavAB: 19-mer: Endo5 fused to Cav AB domain (amino acids 82-95 of human caveolin-1); second generation cavtratin (RRPPRDGIWKASFTTFTVT; listed as Homo sapiens)
[1]; BAEC, peptide 2×10^−6 M
  inhibition of VEGF-induced NO release: 49%
[1]; [5]
  effect on VEGF-induced NO release (in words): completely blocked
[3]
  histopathologic score of the colon: improve the histopathologic sore
  weight loss at 9 days: reduce the weight loss
Multiple sclerosis
  symptoms of MS (motor function, gait): improves the symptoms of MS

## RQIKIWFQNRRMKWKK (listed as Rattus norvegicus) [AP, 16-mer Antennapedia cell-permeable peptide, reference compound]
[1]; [5]
  effect on VEGF-induced NO release (in words): no significant effect
[1]; BAEC, 10^−5 M
  effect on basal (unstimulated) NO release: no significant effect
HUVEC
  intracellular staining after pulse: diffuse punctate cytoplasmic staining
  intracellular staining after chase: more concentrated rather than diffuse pattern

## RRPPR [Endo5, five-amino acid cell-permeable transport peptide]
[1]; [5]
  effect on VEGF-induced NO release (in words): no significant effect
[1]; BAEC, 10^−5 M
  effect on basal (unstimulated) NO release: no significant effect
BAEC
  rate of uptake / internalization relative to AP: three times greater
HUVEC
  intracellular staining after pulse: diffuse punctate cytoplasmic staining
  intracellular staining after chase: more concentrated rather than diffuse pattern

## cavtratin: caveolin mimetic, a fusion peptide of a cell penetrating peptide to the caveolin scaffolding domain; first generation (RQIKIWFQNRRMKWKKDGIWKASFTTFTVTKYWFYR)
Traumatic brain injury; 2.5 mg/kg i.p. immediately after TBI and at 24 hours, scored 24 and 48 hours post injury
  neurological deficits (Clark score): reduces the observed neurological deficits
Traumatic brain injury; 2.5 mg/kg i.p., 48 hours post TBI
  GFAP expression in the lesion penumbra: reduces GFAP expression
[3]
  histopathologic score of the colon: improve the histopathologic sore
  weight loss at 9 days: reduce the weight loss
[4]
  blood brain barrier disruption: inhibited
  clinical score / functional deficits: improve; also recorded: ameliorates
  edema: block
  inflammatory cell (CD45+) invasion into the brain parenchyma: block; also recorded: inhibited
